The values that follow come from patent publication US20240261308A1, “TREATMENT OF SKIN CONDITIONS USING HIGH KRAFFT TEMPERATURE ANIONIC SURFACTANTS” (ARCUTIS BIOTHERAPEUTICS, INC., priority 2020, published 2024).

Test in one data set: not given
The following applies: commonly used anionic surfactants, table values; cited from earlier work.
`CCCCCCCCCCCCOS(=O)(=O)O.N` [Ammonium lauryl sulfate (ALS), Ammonium lauryl sulfate]: the “Krafft Temperature” value was 10 °C.

With `CCCCCCCCCCCCCCCCOS(=O)(=O)[O-].[Na+]` [Sodium cetyl sulfate], the “Krafft Temperature” value is 45.0 °C. For the compound `CCCCCCCCCCOS(=O)(=O)[O-].[Na+]` [Sodium decyl sulfate], the “Krafft Temperature” value was 8.0 °C. For the compound `CCCCCCCCCCCCCCCCS(=O)(=O)[O-].[Na+]` [Sodium hexadecyl sulfonate], the “Krafft Temperature” value was 57.0 °C. For `CCCCCCCCCCCCOS(=O)(=O)[O-].[Na+]` [Sodium lauryl sulfate (SLS), Sodium lauryl sulfate], the “Krafft Temperature” value was 16.0 °C. Regarding `CCCCCCCCCCCCCC(=O)[O-].[Na+]` [Sodium myristate], the “Krafft Temperature” value was 39 °C. Consider `CCCCCCCCCCCCCCOS(=O)(=O)[O-].[Na+]` [Sodium myristyl sulfate], for which the “Krafft Temperature” value was 30.0 °C. `CCCCCCCCCCCCCCS(=O)(=O)[O-].[Na+]` [Sodium myristyl sulfonate]: the “Krafft Temperature” value is 48.0 °C.

On to `CCCCCCCCCCCCCCCC(=O)[O-].[Na+]` [Sodium palmitate], for which the “Krafft Temperature” value is 69 °C. Regarding `CCCCCCCCCCCCCCCCCC(=O)[O-].[Na+]` [Sodium stearate], the “Krafft Temperature” value is 71 °C. In the case of `CCCCCCCCCCCCCCCCCCOS(=O)(=O)[O-].[Na+]` [Sodium stearyl sulfate], the “Krafft Temperature” value was 56.0 °C. In the case of “Sodium laureth sulfate [Sodium laureth sulfate (SLES)]”, the “Krafft Temperature” value is less than 0 °C.

A further data set in a line: Krafft temperature determination of dilute aqueous surfactant in a water bath (dissolution and frothing). The following applies: 0.012% ceteth-10 phosphate, 0.017% dicetyl phosphate, 0.014% sodium cetostearyl sulfate in distilled water. It is filed as physicochemical. On the procedure: 0.0012 grams of ceteth-10 phosphate (Moravek Lot 671-144-000-A-20190821-JHO) was weighed into a 20 mL glass scintillation vial. 10.0113 grams of distilled water was added to the scintillation vial and the vial was tightly capped and placed in a water bath. […] The surfactant remained as waxy particles sedimented on the bottom of the vial. After equilibration at 53.0° C. for 435 minutes, ceteth-10 phosphate had dissolved and the sample frothed when shaken. The Krafft temperature of a 0.012% ceteth-10 phosphate aqueous solution was determined to be 53.0° C.
0.0019 grams of dicetyl phosphate (Sigma dihexadecyl phosphate lot STBH2863) was weighed into a 20 mL glass scintillation vial. 11.2262 grams of distilled water was added to the scintillation vial and the vial was tightly capped and placed in a water bath. […] After equilibration at 58.0° C. for 450 minutes, dicetyl phosphate had dissolved and the sample frothed when shaken. The Krafft temperature of a 0.017% dicetyl phosphate aqueous solution was determined to be 58.0° C.
0.0024 grams of sodium cetostearyl sulfate (BASF Lanette E Granules Lot 0021826181) was weighed into a 20 mL glass scintillation vial. 17.0763 grams of distilled water was added to the scintillation vial and the vial was tightly capped and placed in a water bath. […] The Krafft temperature of a 0.014% sodium cetostearyl sulfate aqueous solution was determined to be 41.0° C.
“ceteth-10 phosphate [Ceteth - 10 phosphate]” returned a Krafft Temperature of 53 °C.

Still in this data set, the particulars now being: 0.012% ceteth-10 phosphate, 0.017% dicetyl phosphate, 0.014% sodium cetostearyl sulfate in distilled water; listed as ceteth-10 phosphate.
“ceteth-10 phosphate [Ceteth - 10 phosphate]” showed a Krafft Temperature of 53 °C.
